# Assay results published in publication PMC8844836 (Journal of molecular neuroscience : MN, 2020).
# Entries after “also recorded” stand apart in the source; their conditions may differ.
# Legend:
# [1] = system: HER3; assay: HER3 tyrosine phosphorylation, Western blot, Calu-3 cells; format: cell-based; settings: for effect of ROS inhibitors on HER3 transactivation, statistics: Fig. 4B, mean ± S.D. of 3 experiments, relative to PACAP by ANOVA; for effect of ROS inhibitors on PACAP-induced HER3 tyrosine phosphorylation: Western blot (Fig. 4A), 3 experiments
# [2] = system: HER2; settings: NSCLC cells ref Moody et al., 2019; cited from earlier work
# [3] = system: EGFR; settings: NSCLC cells ref Moody et al., 2019; cited from earlier work
# [4] = system: Calu-3 cells; assay: Clonogenic assay, Calu-3 cells; format: cell-based
# [5] = system: NSCLC cells; assay: Proliferation of NSCLC cells; format: cell-based
# [6] = system: HER3; assay: HER3 tyrosine phosphorylation, NSCLC cells; format: cell-based
# [7] = system: ERK; assay: ERK phosphorylation, Western blot, Calu-3 cells; format: cell-based
# [8] = target: T1, PAC1 (Calu-3 cells) (Homo sapiens, UniProt P41586); assay: cell-based
# T1 sequence (P41586 21-468): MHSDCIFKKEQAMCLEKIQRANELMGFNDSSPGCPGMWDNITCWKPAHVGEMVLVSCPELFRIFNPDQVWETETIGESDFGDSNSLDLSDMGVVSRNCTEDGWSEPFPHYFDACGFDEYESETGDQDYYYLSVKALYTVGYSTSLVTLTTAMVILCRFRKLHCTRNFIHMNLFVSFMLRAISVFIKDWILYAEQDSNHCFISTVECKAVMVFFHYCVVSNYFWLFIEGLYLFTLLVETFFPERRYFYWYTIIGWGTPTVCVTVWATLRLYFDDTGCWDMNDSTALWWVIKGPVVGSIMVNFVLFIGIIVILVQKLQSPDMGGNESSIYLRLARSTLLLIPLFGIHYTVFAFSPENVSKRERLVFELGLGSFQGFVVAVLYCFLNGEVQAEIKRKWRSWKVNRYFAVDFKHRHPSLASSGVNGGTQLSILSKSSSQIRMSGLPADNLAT
# [9] = system: HER3; settings: NSCLC cells ref Lee et al., 2020; cited from earlier work
compound,measurement,setting,value
CC(=O)N[C@@H](CS)C(=O)O [N-acetyl cysteine],"effect of ROS inhibitors on HER3 transactivation, statistics",[1]; listed as NAC,significantly impair; also recorded: impaired significantly
same,effect of ROS inhibitors on PACAP-induced HER3 tyrosine phosphorylation,[1],strongly inhibited
same,effect on PACAP-induced HER2 tyrosine phosphorylation (ROS inhibitors),[2],inhibited
same,effect on PACAP-induced EGFR tyrosine phosphorylation (ROS inhibitors),[3],inhibited
COc1cc2ncnc(Nc3ccc(F)c(Cl)c3)c2cc1OCCCN1CCOCC1 [gefitinib],effect on PACAP-27-induced increase in colony number,[4]; 100 nM PACAP-27,impaired
same,"Colony number, + PACAP","[4]; with 100 nM PACAP-27, PACAP(6–38) 5 μM, gefitinib 1 μM, trastuzumab 0.1 μg/ml, mAb3481 0.1 μg/ml, mean ± S.D. of 3 determinations",43 ± 5
same,proliferation of NSCLC cells,[5],inhibited proliferation
O=S(=O)(O)c1cc(O)c(O)c(S(=O)(=O)O)c1 [Tiron],"effect of ROS inhibitors on HER3 transactivation, statistics",[1],significantly impair
same,"effect of ROS inhibitors on HER3 transactivation, statistics",[1]; listed as Tir,impaired significantly
same,effect of ROS inhibitors on PACAP-induced HER3 tyrosine phosphorylation,[1],strongly inhibited
same,effect on PACAP-induced HER2 tyrosine phosphorylation (ROS inhibitors),[2],inhibited
same,effect on PACAP-induced EGFR tyrosine phosphorylation (ROS inhibitors),[3],inhibited
neuregulin (NRG)-1 [NRG-1],"HER3 tyrosine phosphorylation, NSCLC cells",[6],increased HER3 tyrosine phosphorylation
same,"HER3 phosphorylation, 5, 10 and 30 min","[1]; Calu-3, PACAP-27 1000 nM or NRG-1 1 μg/ml, 5, 10 and 30 min",moderate
same,"HER3 phosphorylation, 2 min","[1]; Calu-3, PACAP-27 1000 nM or NRG-1 1 μg/ml, 2 min",weakly stimulates
same,"HER3 phosphorylation, densitometry statistics, 2, 5, 10 and 30 min","[1]; Fig. 2D, NRG-1 1 μg/ml, Calu-3, 2, 5, 10 and 30 min",significantly increased
same,increase in colony number,"[4]; NRG-1 0.1 μg/ml, PACAP-27 100 nM, 2 weeks",33%
same,"ERK phosphorylation, densitometry statistics, 2, 5, 10 and 30 min","[7]; Fig. 2D, NRG-1 1 μg/ml, 2, 5, 10 and 30 min",significantly increased
same,"ERK phosphorylation, 5, 10 and 30 min","[7]; PACAP-27 1000 nM or NRG-1 1 μg/ml, 5, 10 and 30 min",moderate
same,"ERK phosphorylation, 2 min","[7]; PACAP-27 1000 nM or NRG-1 1 μg/ml, 2 min",weakly stimulates
same,proliferation of NSCLC cells,[5],increased the proliferation
CSCC[C@H](NC(=O)[C@H](CCC(N)=O)NC(=O)[C@H](CCCCN)NC(=O)[C@H](CCCNC(=N)N)NC(=O)[C@H](Cc1ccc(O)cc1)NC(=O)[C@H](CCCNC(=N)N)NC(=O)[C@H](CO)NC(=O)[C@H](Cc1ccc(O)cc1)NC(=O)[C@H](CO)NC(=O)[C@H](CC(=O)O)NC(=O)[C@@H](NC(=O)[C@@H](N)Cc1ccccc1)[C@@H](C)O)C(=O)N[C@@H](C)C(=O)N[C@H](C(=O)N[C@@H](CCCCN)C(=O)N[C@@H](CCCCN)C(=O)N[C@@H](Cc1ccc(O)cc1)C(=O)N[C@@H](CC(C)C)C(=O)N[C@@H](C)C(=O)N[C@@H](C)C(=O)N[C@H](C(=O)N[C@@H](CC(C)C)C(=O)NCC(=O)N[C@@H](CCCCN)C(=O)N[C@@H](CCCNC(=N)N)C(=O)N[C@@H](Cc1ccc(O)cc1)C(=O)N[C@@H](CCCCN)C(=O)N[C@@H](CCC(N)=O)C(=O)N[C@@H](CCCNC(=N)N)C(=O)N[C@H](C(=O)N[C@@H](CCCCN)C(=O)N[C@@H](CC(N)=O)C(=O)N[C@@H](CCCCN)C(N)=O)C(C)C)C(C)C)C(C)C [PACAP(6–38)],IC50,[8],31.4 ± 4.9 nM
Bombesin,HER3 tyrosine phosphorylation,[9],increases HER3 tyrosine phosphorylation
"c1ccc2c(c1)[I+]c1ccccc1-2 [DPI, diphenylene iodonium]","effect of ROS inhibitors on HER3 transactivation, statistics",[1],not DPI impaired significantly
same,effect of ROS inhibitors on PACAP-induced HER3 tyrosine phosphorylation,[1],weakly
same,effect on PACAP-induced HER2 tyrosine phosphorylation (ROS inhibitors),[2],inhibited
same,effect on PACAP-induced EGFR tyrosine phosphorylation (ROS inhibitors),[3],inhibited
